This note sets out measurements from ChEMBL document CHEMBL3588813, “Antifungal Amphiphilic Aminoglycosides” (Medchemcomm, 2014).

Values after ≈ are worked out from the molar mass of the structure shown. A value given as a limit tells only on which side of the number the result lay.

Data set [1] deals with Staphylococcus aureus. The experiment in a line: Antimicrobial activity against Staphylococcus aureus ATCC 25923 assessed as inhibition of bacterial growth incubated at 35 degC for 12 to 18 hrs. Format: functional.
Data set [2] relates to Staphylococcus aureus. The experiment in a line: Antimicrobial activity against methicillin-resistant Staphylococcus aureus ATCC 33591 assessed as inhibition of bacterial growth incubated at 35 degC for 12 to 18 hrs. In kind it is functional.
The test system of data set [3] is Escherichia coli. The experiment in a line: Antimicrobial activity against Escherichia coli ATCC 25922 assessed as inhibition of bacterial growth incubated at 35 degC for 12 to 18 hrs. Format: functional.
The test system of data set [4] is Enterococcus faecalis. The experiment in a line: Antimicrobial activity against vancomycin-resistant Enterococcus faecalis ATCC 1299 assessed as inhibition of bacterial growth incubated at 35 degC for 12 to 18 hrs. Format: functional.
In data set [5] the test system is Pseudomonas aeruginosa. The experiment in a line: Antimicrobial activity against Pseudomonas aeruginosa ATCC 27853 assessed as inhibition of bacterial growth incubated at 35 degC for 12 to 18 hrs. Format: functional.
Data set [6] deals with Fusarium graminearum. Briefly: Antimicrobial activity against Fusarium graminearum B4-5A using RPMI medium by microbroth dilution assay. Format: functional.
For data set [7], the system named is Fusarium graminearum. The experiment in a line: Antimicrobial activity against Fusarium graminearum B4-5A using potato dextrose broth as growth medium and diluent. Format: functional.
A short description of data set [8]: Induction of hemolysis in sheep erythrocytes incubated at 37 degC for 60 mins. In kind it is cell-based, Ovis aries, Erythrocyte.

Take `CCCCCCCCCC(=O)NC[C@H]1O[C@@H](O[C@@H]2[C@@H](O)[C@H](N)C[C@H](N)[C@H]2O[C@H]2O[C@H](CN)[C@@H](O)[C@H](O)[C@H]2N)[C@H](O)[C@@H]1O[C@H]1O[C@@H](CN)[C@@H](O)[C@H](O)[C@H]1N`: the MIC in data set [1] was determined as 16 µg/mL (≈ 20.8 µM); in data set [2], 125 µg/mL (≈ 163 µM); in data set [3] it was 32 µg/mL (≈ 41.7 µM); in data set [4], 64 µg/mL (≈ 83.3 µM); in data set [5], 16 µg/mL (≈ 20.8 µM).

On to `CCCCCCCCCCCCCC(=O)NC[C@H]1O[C@@H](O[C@@H]2[C@@H](O)[C@H](N)C[C@H](N)[C@H]2O[C@H]2O[C@H](CN)[C@@H](O)[C@H](O)[C@H]2N)[C@H](O)[C@@H]1O[C@H]1O[C@@H](CN)[C@@H](O)[C@H](O)[C@H]1N`, for which the MIC in data set [1] came out at 2 µg/mL (≈ 2.43 µM); in data set [2], 4 µg/mL (≈ 4.85 µM); in data set [3], 8 µg/mL (≈ 9.71 µM); in data set [4] it was 8 µg/mL (≈ 9.71 µM); in data set [5], 8 µg/mL (≈ 9.71 µM).

For the compound `CCCCCCCCCCC(=O)OCC[C@H]1O[C@H](O[C@@H]2[C@@H](O)[C@H](O[C@H]3O[C@H](CN)[C@@H](O)[C@H](O)[C@H]3N)[C@@H](N)C[C@H]2N)[C@H](O)[C@@H](N)[C@@H]1O`, the MIC in data set [6] was found to be 62.5 µg/mL (≈ 93.9 µM).

On to `CCCCCCCCSCC[C@H]1O[C@H](O[C@@H]2[C@@H](O)[C@H](O[C@H]3O[C@H](CN)[C@@H](O)[C@H](O)[C@H]3N)[C@@H](N)C[C@H]2N)[C@H](O)[C@@H](N)[C@@H]1O`, for which inhibition of growth in data set [6] (MIC) required 15.6 µg/mL (≈ 24.9 µM).

Take `Cc1ccc(S(=O)(=O)OCC[C@H]2O[C@H](O[C@@H]3[C@@H](O)[C@H](O[C@H]4O[C@H](CN)[C@@H](O)[C@H](O)[C@H]4O)[C@@H](N)C[C@H]3N)[C@H](O)[C@@H](N)[C@@H]2O)cc1`: the MIC in data set [6] was above 500 µg/mL.

For the compound `CCCCO[C@H]1[C@H](N)[C@@H](O)[C@@H](O[C@@H]2[C@@H](O)[C@H](O[C@H]3O[C@H](CN)[C@@H](O)[C@H](O)[C@H]3N)[C@@H](N)C[C@H]2N)O[C@@H]1C`, the MIC in data set [7] and in data set [6] was above 500 µg/mL in each case.

With `CCCCCCCCCCCCO[C@H]1[C@H](N)[C@@H](O)[C@@H](O[C@@H]2[C@@H](O)[C@H](O[C@H]3O[C@H](CN)[C@@H](O)[C@H](O)[C@H]3N)[C@@H](N)C[C@H]2N)O[C@@H]1C`, the MIC in data set [7] and in data set [6] was above 500 µg/mL each time.

In the case of `NC[C@@H]1O[C@H](O[C@H]2[C@@H](O)[C@H](O[C@@H]3[C@@H](O)[C@H](N)C[C@H](N)[C@H]3O[C@H]3O[C@H](CN)[C@@H](O)[C@H](O)[C@H]3N)O[C@@H]2Cn2cc(CNC(=O)c3cc(-c4ccccc4)nc4ccccc34)nn2)[C@H](N)[C@@H](O)[C@@H]1O`, the MIC in data set [1] was determined as 8 µg/mL (≈ 8.64 µM); in data set [3] it was 32 µg/mL (≈ 34.6 µM).

Regarding `CCCCCCC(=O)NC[C@H]1O[C@@H](O[C@@H]2[C@@H](O)[C@H](N)C[C@H](N)[C@H]2O[C@H]2O[C@H](CN)[C@@H](O)[C@H](O)[C@H]2N)[C@H](O)[C@@H]1O[C@H]1O[C@@H](CN)[C@@H](O)[C@H](O)[C@H]1N`, the MIC is 2 µg/mL (≈ 2.76 µM) in data set [1]; 125 µg/mL (≈ 172 µM) in data set [2]; 16 µg/mL (≈ 22 µM) in data set [3]; at least 250 µg/mL in data set [4]; at least 250 µg/mL in data set [5]; 62.5 µg/mL (≈ 86.1 µM) in data set [6].

Take `CCCCCCc1cn(C[C@H]2O[C@@H](O[C@@H]3[C@@H](O)[C@H](N)C[C@H](N)[C@H]3O[C@H]3O[C@H](CN)[C@@H](O)[C@H](O)[C@H]3N)[C@H](O)[C@@H]2O[C@H]2O[C@@H](CN)[C@@H](O)[C@H](O)[C@H]2N)nn1`: the MIC is 4 µg/mL (≈ 5.33 µM) in data set [1] and 32 µg/mL (≈ 42.7 µM) in data set [3].

With `CCCCCCCCCCCCCCCC(=O)NC[C@H]1O[C@@H](O[C@@H]2[C@@H](O)[C@H](N)C[C@H](N)[C@H]2O[C@H]2O[C@H](CN)[C@@H](O)[C@H](O)[C@H]2N)[C@H](O)[C@@H]1O[C@H]1O[C@@H](CN)[C@@H](O)[C@H](O)[C@H]1N`, the MIC in data set [1] was found to be 1 µg/mL (≈ 1.17 µM); in data set [2], 2 µg/mL (≈ 2.35 µM); in data set [3], 4 µg/mL (≈ 4.69 µM); in data set [4], 4 µg/mL (≈ 4.69 µM); in data set [5], 4 µg/mL (≈ 4.69 µM); in data set [6], 125 µg/mL (≈ 147 µM). Also, in data set [8], the IC90 at 1 h is above 1000 µg/mL.

As for `CCCCCCCCCCCCCCCCCC(=O)NC[C@H]1O[C@@H](O[C@@H]2[C@@H](O)[C@H](N)C[C@H](N)[C@H]2O[C@H]2O[C@H](CN)[C@@H](O)[C@H](O)[C@H]2N)[C@H](O)[C@@H]1O[C@H]1O[C@@H](CN)[C@@H](O)[C@H](O)[C@H]1N`, the minimum inhibitory concentration (MIC) is 2 µg/mL (≈ 2.27 µM) in data set [1]; 2 µg/mL (≈ 2.27 µM) in data set [2]; 4 µg/mL (≈ 4.54 µM) in data set [3]; 8 µg/mL (≈ 9.09 µM) in data set [4]; 8 µg/mL (≈ 9.09 µM) in data set [5]; 125 µg/mL (≈ 142 µM) in data set [6]. In data set [8], this compound displayed an IC90 at 1 h above 1000 µg/mL.

As for `NC[C@@H]1O[C@H](O[C@H]2[C@@H](O)[C@H](O[C@@H]3[C@@H](O)[C@H](N)C[C@H](N)[C@H]3O[C@H]3O[C@H](CN)[C@@H](O)[C@H](O)[C@H]3N)O[C@@H]2CNC(=O)c2cc(-c3ccccc3)nc3ccccc23)[C@H](N)[C@@H](O)[C@@H]1O`, the MIC in data set [1] worked out at 4 µg/mL (≈ 4.73 µM); in data set [3], 8 µg/mL (≈ 9.47 µM).

`CCCCCCCCCCCC(=O)NC[C@H]1O[C@@H](O[C@@H]2[C@@H](O)[C@H](N)C[C@H](N)[C@H]2O[C@H]2O[C@H](CN)[C@@H](O)[C@H](O)[C@H]2N)[C@H](O)[C@@H]1O[C@H]1O[C@@H](CN)[C@@H](O)[C@H](O)[C@H]1N`: the MIC turned out to be 8 µg/mL (≈ 10.1 µM) in data set [1]; 16 µg/mL (≈ 20.1 µM) in data set [2]; 16 µg/mL (≈ 20.1 µM) in data set [3]; 64 µg/mL (≈ 80.4 µM) in data set [4]; 16 µg/mL (≈ 20.1 µM) in data set [5].

`NCC[C@H](O)C(=O)N[C@@H]1C[C@H](N)[C@@H](O[C@H]2O[C@H](CN)[C@@H](O)[C@H](O)[C@H]2O)[C@H](O)[C@H]1O[C@H]1O[C@H](CO)[C@@H](O)[C@H](N)[C@H]1O` [AMIKACIN]: the minimal inhibitory concentration (MIC) is 1 µg/mL (≈ 1.71 µM) in data set [1]; 8 µg/mL (≈ 13.7 µM) in data set [2]; 1 µg/mL (≈ 1.71 µM) in data set [3]; at least 250 µg/mL in data set [4]; 0.5 µg/mL (≈ 0.854 µM) in data set [5].

Turning to `NC[C@H]1O[C@H](O[C@H]2[C@H](O)[C@@H](O[C@H]3O[C@H](CO)[C@@H](O)[C@H](N)[C@H]3O)[C@H](N)C[C@@H]2N)[C@H](N)[C@@H](O)[C@@H]1O` [BEKANAMYCIN], in data set [7], the MIC was above 250 µg/mL.

Consider `NC[C@@H]1O[C@H](O[C@H]2[C@@H](O)[C@H](O[C@@H]3[C@@H](O)[C@H](N)C[C@H](N)[C@H]3O[C@H]3O[C@H](CN)[C@@H](O)[C@H](O)[C@H]3N)O[C@@H]2CO)[C@H](N)[C@@H](O)[C@@H]1O` [FRAMYCETIN], for which the MIC in data set [1] was 1 µg/mL (≈ 1.63 µM); in data set [2], 125 µg/mL (≈ 203 µM); in data set [3], 4 µg/mL (≈ 6.51 µM); in data set [4], at least 250 µg/mL; in data set [5], 64 µg/mL (≈ 104 µM); in data set [6], 62.5 µg/mL (≈ 102 µM).

In turn, `NC[C@@H]1O[C@@H](O[C@H]2[C@H](O)[C@@H](O[C@H]3O[C@H](CO)[C@@H](O)[C@H](N)[C@H]3O)[C@H](N)C[C@@H]2N)[C@@H](O)[C@H](O)[C@H]1O` [KANAMYCIN A] displayed an MIC in data set [6] above 500 µg/mL.

For `CN[C@H](CC(C)C)C(=O)N[C@H]1C(=O)N[C@@H](CC(N)=O)C(=O)N[C@H]2C(=O)N[C@H]3C(=O)N[C@H](C(=O)N[C@H](C(=O)O)c4cc(O)cc(O)c4-c4cc3ccc4O)[C@H](O)c3ccc(c(Cl)c3)Oc3cc2cc(c3O[C@@H]2O[C@H](CO)[C@@H](O)[C@H](O)[C@H]2O[C@H]2C[C@](C)(N)[C@H](O)[C@H](C)O2)Oc2ccc(cc2Cl)[C@H]1O` [VANCOMYCIN], the MIC in data set [3] was 125 µg/mL (≈ 86.3 µM); in data set [4] it was 250 µg/mL (≈ 173 µM); in data set [5], at least 250 µg/mL.
